The test system of one assay is Candida albicans. The experiment in a line: anti-Candida albicans growth inhibition test in liquid medium (96-well microplates). The conditions noted are these: fold relative to Ard1. The assay is classed as cell-based. Here is the method: (§1) The anti-Candida albicans and anti-Aspergillus fumigatus activities of the different analogues were assessed using a growth inhibition test in liquid medium made in 96-well microplates. The activity of the purified peptides was tested for different dilutions of each peptide and was compared with those of heliomycin and Ard1 quantified under the same conditions.
The activity test was made directly on yeasts derived from a stock frozen at −80° C., in Sabouraud medium containing 15% glycerol. The density of the yeasts in the stock was adjusted to an optical density of 0.4 OD at 600 nm. After slow thawing at room temperature, the yeast suspension was reduced by dilution to an optic density of 1 mOD at 600 nm in Sabouraud medium, and 90 μl of this dilution were deposited in the wells of microtitration plates in the presence of 10 μl of sample to be tested. Control samples were systematically made in which 10 μl of sample were replaced by 10 μl of sterile water. Media sterility was controlled by incubating 10 μl sterile water in the presence of 90 μl of medium. The samples were incubated at 30° C. for 40 h under slight stirring and the antifungal activity was quantified by measuring optic density at 600 nm.

In another assay the test system is Neurospora crassa. The class given is cell-based. The note with it: 48 h. On the procedure: (§2) 100 μl of peptide dilutions (concentration 50 with 0.097 mg/ml peptide) were deposited in microtitration plates.
(§3) After adding 100 μl of frozen spores with 10^4 spores/ml of A. brassicola and N. crassa (donated by Dr. Bullet, IBMC, Strasbourg) the test plates were incubated 48 h at 30° C.
(§4) Determination of minimal inhibiting concentrations (MIC) was made by observing well cover rate. The MIC was set at 50% well covering.

The test system of a further assay is Alternaria brassicola. The class given is cell-based. The note with it: 48 h. On the procedure:
as §2, §3, §4

The subject of a further assay is A. terreus. The class given is cell-based. On the procedure:
(§5) The antifungal activity was detected by a growth inhibition test in a liquid medium.
(§6) The filamentous fungi (A. fumigatus, A. flavus and A. terreus, donated by Dr. H. Koenig, Hôpital Civil, Strasbourg; and S. prolificans and F. solani donated by Drs. J. Meis and J. Mouton, University hospital, Microbioolgy Department, Nijmegen, Netherlands) were seeded on Malt-Agar slant gelose (Biomerieux) and incubated 7 days at 37° C.
(§7) The spores were then collected with 10 ml YPG medium containing 0.05% Tween 20 and filtered through a gauze. The spores were centrifuged 10 min at 1700 rpm, the residue was collected in YPG (1 g Yeast extract, 1 g Peptone, 3 g Glucose per 1 l).
(§8) The suspension was counted with a Coverslide and adjusted to 10^4 spores/ml.
(§9) 100 μl of peptide dilutions (concentration of 50 with 0.097 μg/ml peptide) were deposited in microtitration plates. 100 μl with 10^4 spores/ml of filamentous fungi, i.e. 1000 spores, were then added.
(§10) The test plates were incubated 48 h at 37° C.
(§11) Determination of minimum inhibiting concentrations (MIC) was made by observing well cover rate. The MIC score was set at 50% well covering.

The next assay deals with Aspergillus fumigatus. Nature of the assay: anti-Aspergillus fumigatus growth inhibition test in liquid medium (96-well microplates). The conditions noted are these: fold relative to Ard1. The assay is classed as cell-based. On the procedure:
as §1
The spores of Aspergillus fumigatus were derived from a stock frozen at −80° C., containing 10^7 spores/ml in a 25% glycerol solution. After slow thawing at room temperature, the spores were placed in suspension in PDB culture medium (12 g Potato Dextrose Broth medium, per […] water). 10 μl of each sample were deposited in the wells of microtitration plates in the presence of 90 μl PDB culture medium supplemented with tetracycline (100 μg/ml) and cefotaxime (1 μg/ml) containing the spores (at a final concentration of 1000 spores/well). Control cultures were systematically made in which 10 μl of sample were replaced by 10 μl of sterile water. Media sterility was controlled by incubating 10 μl sterile water in the presence of 90 μl of medium. The samples were incubated at 37° C. for 24 h to 48 h in a humid atmosphere, and the antifungal activity was quantified by a score of 0 to 9 taking germination account; the size and morphology of the hyphs were determined under the binocular microscope. […].

Assay [1] concerns Candida albicans (IHEM 8060 strain). The experiment in a line: Candida albicans infected model, lethal in mice (disseminated candidiasis). The conditions noted are these: for effect on mouse survival relative to placebo treatment: 3.10^6 CFU, three i.v. injections, 10 mice of 15 g; for effect on mouse survival relative to placebo treatment / morbidity score up to post-infection day 5 / median mortality, post-infection day / delay of onset of the 1st death: 5 mg/kg; for morbidity score up to post-infection day 5: placebo 1/50; for median mortality, post-infection day: placebo day 4; for delay of onset of the 1st death: placebo first deaths 2.5 days; for mice alive on day 7 (out of 10): placebo 5 alive; for time of onset of the 1st death: placebo day 2.5. The assay is classed as in vivo. Here is the method: Heliomycin and its analogues were tested for in vivo antifungal activity in a model infected with Candida albicans, lethal in mice. The pathogenic agent Candida albicans (IHEM 8060 strain) was inoculated by intravenous route (i.v.) at a dose of 2.5×10^6 CFU/mouse. the peptides were administered by i.v. route in 4 injections 6 h, 24 h, 48 h and 72 h after infection. Assessment criteria for activity were evaluation of survival and morbidity at 7 days. The morbidity scores, which take into account general state of health (condition of fur, mobility, hydration) were determined for each mouse with values ranging from 0 to 5 and defined below: 0=dead, 1=moribund, 2=very ill, 3=ill, 4=slightly ill, 5=healthy. The sum of the individual scores was calculated for each group, a score of 50 for a group of 10 mice meaning that all the mice were healthy.
Following a standard protocol, groups of 10 Swiss OF1 male mice weighing 12 g were infected via i.v. route with a dose of 2.5×10^6 CFU/mouse. Heliomycin and Ard1 were administered by i.v. route in 4 injections, 6 h, 24 h, 48 h and 72 h after infection. For each peptide, 2 doses were tested: 10 mg/kg and 30 mg/kg. A placebo group was injected with peptide solvent, 0.9% sodium chloride.
In this experiment, inoculation of the mice with 2.5.10^6 CFU/mouse was 50% lethal at day 5 in the group which received placebo treatment. The first deaths occurred on post-infection day 2.5 and median mortality occurred on post-infection day 5. On day 7, 5 mice were alive and the morbidity score 15/50.
In this experiment, inoculation of Swiss OF1 mice weighing 15 g with 3.10^6 CFU of Candida albicans induces 50% mortality on day 4 after infection in the group treated with the placebo. The first deaths occur 2.5 days after infection, and 100% of the mice were dead on day 5.5.
In this experiment, inoculation of the mice with 2.5.10^6 CFU/mouse was 50% lethal at day 5 and 100% at day 8 for mice in the placebo group. The first death occurred 3 days after infection. The morbidity score fell rapidly below 30/50 (25/50 at day 2.5).
The pEM35 peptide was administered at doses of 10 and 30 mg/kg/injection with 3 daily doses for 4 days (1 h, 5 h and 10 h post-infection on day 0; at 8 h, 14 h and 20 h on days 1, 2 and 3), i.e., daily doses totalling 30 and 90 mg/kg.

In the next assay the test system is A. flavus. The class given is cell-based. Here is the method: as §5, §6, §7, §8, §9, §10, §11

From patent publication US20030208035A1, “Antifungal and/or antibacterial peptides, preparation methods, compositions containing same and methods of treating mammals and/or plants” (priority 2000, published 2003) come the findings set out here.

Bridges are numbered along the chain shown (N, C = ends). Where no end group is shown, it is not given here. Bounds are passed on as bounds.

For orientation: MIC means the smallest concentration in the dilution series that meets the test's criterion for growth inhibition. A higher MIC goes with weaker potency. “DKLIGSCVWGAVNYTSNCNAECKRRGYKGGHCGSFLNVNCWCQT (disulfide 7-32, 18-40, 22-42 (inferred)) [pEM46]”: the “Activity C.a. (relative activity in relation to Ard1)” value in the assay with Candida albicans is 4-8. For the same sequence, the values for the MIC against Neurospora crassa, in the assay on Alternaria brassicola and against A. terreus were 0.195 µg/mL, 25 µg/mL and 6.25 µg/mL, respectively. For the same sequence, the “Activity A.f. (relative activity in relation to Ard1)” value in the assay with Aspergillus fumigatus was 6-8. Further, the “effect on mouse survival relative to placebo treatment” value in assay [1] (FIGS. 6-7) is “does not significantly increase mouse survival”.

With “DKLIGSCVWGAVNYTSNCRAECKRRGYKGGHCGSFANVNCWCET (disulfide 7-32, 18-40, 22-42 (inferred)) [pEM51]”, the “Activity C.a. (relative activity in relation to Ard1)” value with Candida albicans is reported as 2-4. The MIC was 0.195 µg/mL against Neurospora crassa, over 25 µg/mL in the assay on Alternaria brassicola, 6.25 µg/mL against A. flavus and 3.125 µg/mL against A. terreus. In the assay on Aspergillus fumigatus, the “Activity A.f. (relative activity in relation to Ard1)” value was 1. In addition, the “morbidity score up to post-infection day 5” value in assay [1] (FIGS. 6-7) was 11/50. In assay [1] (FIGS. 6-7), the “median mortality, post-infection day” value turned out to be 5 days. Besides, in assay [1] (FIGS. 6-7), the “delay of onset of the 1st death” value came to 1.5 days.

Regarding “DKLIGSCVWGAVNYTSNCNAECKRRGYKGGHCGSFANVNCWCQT (disulfide 7-32, 18-40, 22-42 (inferred)) [pEM31]”, the “Activity C.a. (relative activity in relation to Ard1)” value in the assay with Candida albicans worked out at 2. Also, the MIC against Neurospora crassa is under 0.048 µg/mL. The same sequence had an MIC against Alternaria brassicola of over 25 µg/mL. This sequence also displayed an MIC against A. flavus of over 25 µg/mL. In addition, the “Activity A.f. (relative activity in relation to Ard1)” value in the assay with Aspergillus fumigatus is on record as 4-8. Besides, in assay [1] (FIGS. 4-5, 10 mg/kg), the “activity compared with Ard1” value is “more active than Ard1”, the “morbidity score maintained for 5 days” value is “higher than 40/50”, the “mice alive on day 7 (out of 10)” value turned out to be 8 mice and the “time of onset of the 1st death” value came to 5.5 days. Besides, the “effect on mouse survival relative to placebo treatment” value in assay [1] (FIGS. 6-7) was “does not significantly increase mouse survival”. Also, the “effectiveness in the candidiasis infected model” value in assay [1] (FIGS. 6-7, dose 5 mg/kg) was “not effective”.

Take “DKLIGSCVWGAVNYTSNCNAECKRRGYKGGHCGSFLNVNCWCET (disulfide 7-32, 18-40, 22-42 (inferred)) [pEM35]”: in the assay on Candida albicans, the “Activity C.a. (relative activity in relation to Ard1)” value came to 4. The MIC with Neurospora crassa was under 0.048 µg/mL. The sequence further gave an MIC against Alternaria brassicola of over 25 µg/mL. In the assay with A. flavus, this sequence displayed an MIC of 3.125 µg/mL. The sequence also displayed an MIC against A. terreus of 6.25 µg/mL. Besides, the “Activity A.f. (relative activity in relation to Ard1)” value in the assay on Aspergillus fumigatus is listed as 2-4. Besides, the “survival rate on post-infection day 8” value in assay [1] (FIG. 8, 30 mg/kg/day (10 mg/kg/injection, 3 daily, 4 days), placebo 100% lethal day 8) is given as 80%. In assay [1] (FIG. 8, 90 mg/kg/day (30 mg/kg/injection, 3 daily, 4 days)), the “survival rate on post-infection day 8” value is 90%. In assay [1] (FIG. 8, 30 and 90 mg/kg/day), the “morbidity score on day 8” value was 30/50 and the “morbidity score until day 7” value is given as “above 40/50”. Also, in assay [1] (FIGS. 4-5, 10 mg/kg), the “activity compared with Ard1” value is recorded as “more active than Ard1”, the “mice alive on day 7 (out of 10)” value was 9 mice and the “time of onset of the 1st death” value is 7 days. Further, in assay [1] (FIGS. 6-7), the “morbidity score up to post-infection day 5” value is 28/50; the “median mortality, post-infection day” value came to 6 days; the “delay of onset of the 1st death” value amounted to 1.5 days.
